Data as given in a melting point compilation (Tetko et al.; mined from patent text by program, amines drawn as free bases though some values may be those of a salt).

Row | melting point [°C] | SMILES
1 | 99 to 103 | COC(=O)C(C(=O)OC)c1ccccc1COc1ccccc1C
2 | 295 to 300 | CC(C)c1ccc(NC(=O)Nc2cccc(C(=O)O)c2)cc1
3 | 172 to 175 | CCN(CC)C(=O)n1c(C(=O)C(C)(C)c2ccc(Cl)cc2)cc2cc(OC)ccc21
4 | 86 to 88 | C=C(C(=O)c1cc(-c2cccs2)ccc1OC)c1ccc(C#N)cc1
5 | 60 to 63 | CCOC(=O)COc1cccc2c1CC(Br)C2=O (stereo unspecified)
6 | 156 to 158 | COCc1cnc2c(NC(=O)c3c(Cl)cccc3Cl)cc(C)cc2c1Cl
7 | 227 to 230 | CCc1cccc(CC)c1NC(=O)NC1(c2ccccc2)CCC1
8 | 158 to 159 | Nc1nc(N)c2ncn(C3OC(COCc4ccccc4)C(OCc4ccccc4)C3OCc3ccccc3)c2n1 (stereo unspecified)
9 | 77 to 79 | CCC(COc1cccc(COc2cccc3cccnc23)c1)OC(C)=O (stereo unspecified)
10 | 122 to 126 | COC(=O)ONC(=N)Nc1ccc(C(=O)OC(C)(C)C)cc1
11 | 200 to 202 | COC(=O)[C@H](Cc1ccc(NC(=O)c2c(Cl)cccc2Cl)cc1)NC(=S)C1(CCCCS(C)(=O)=O)CCCC1
12 | 74 to 76 | COc1ccc(Nc2nc(Cl)cc(NC3CCCCCC3)n2)cc1Cl
13 | 128 to 129 | CCCNc1cc(-c2c(-c3cccc(C)c3)nc3cccnn23)ccn1
14 | 260 to 264 | CN(C)c1ccc(C=C2SC(=S)N(CC(=O)O)C2=O)cc1
15 | 249 | Cc1ccc(NC(=O)c2cnn3c(C(F)F)cc(-c4ccc(C(F)(F)F)cc4)nc23)cc1S(N)(=O)=O
16 | 140 to 141 | CN(C)c1ccccc1CS(=O)c1nc2c(n1-c1ccccn1)CCC2 (stereo unspecified)
17 | 88 to 90 | CSC(=S)Oc1cnc(C)c2c1COC(C)(C)O2
18 | 173 to 175 | O=C(Nc1ccccc1[N+](=O)[O-])c1ccc(-n2nc(C(F)(F)F)cc2C(F)(F)F)cc1
19 | 205 to 206 | O=C(c1ccc(Cl)cc1)c1ccc(Cc2c(Cl)cc(N3N=CCNC3=O)cc2Cl)cc1
20 | 147 to 148 | Cc1noc(NS(=O)(=O)c2ccccc2-c2ccsc2)c1C
21 | 105 | Cc1cccc(-c2cccc(-c3nc(C)cc(Cl)n3)n2)c1
22 | 92 to 94 | O=C(OCc1ccc(Cl)cc1)c1ncccc1OCc1ccc(Cl)cc1
23 | 132 to 133 | O=C(O)COc1nn(Cc2ccccc2)cc1-c1ccccc1
24 | 95 to 98 | CCC(C)(C)OC(=O)NC(C)(Cc1c[nH]c2ccccc12)C(=O)NCCc1cccs1 (stereo unspecified)

Row | melting point [°C] | SMILES
25 | 189 to 191 | CC(C)c1nc(CCOC(N)=O)n(Cc2ccncc2)c1Sc1cc(Cl)cc(Cl)c1
26 | 200 to 201 | Nc1cc(-c2nnc(SCc3ccc(Cl)cc3)o2)ccn1
27 | 173 to 175 | O=C(O)C1CCc2c(c3ccccc3n2C(=O)c2cccc(C(F)(F)F)c2)C1 (stereo unspecified)
28 | 118 to 120 | CC1=C(C(=O)OCCN2CCCCC2)C(c2ccccc2C(F)(F)F)c2c(ccnc2OC(C)C)N1 (stereo unspecified)
29 | 207 | O=c1[nH]c2ccccc2n1CCCN1CC=C(n2c(=O)[nH]c3ccccc32)CC1
30 | 189 to 190 | CCCOC(C)c1ccc2[nH]c3cnc(C(=O)OCC)c(COC)c3c2c1 (stereo unspecified)
31 | 53 to 57 | O=C(C=Cc1ccc(F)c(F)c1)OCCc1ccccc1
32 | 77 | NCC1COc2cc(F)cc(-c3ccccc3F)c2N1 (stereo unspecified)
33 | 216 to 218 | O=[N+]([O-])c1ccc(Oc2ccc(C3(c4ccc(Oc5ccc([N+](=O)[O-])cc5)cc4)CCC(c4ccccc4)CC3)cc2)cc1
34 | 173 to 174 | Cn1cccc(Cc2cc3cccc(-c4cccc(C(=O)NCCO)c4)c3s2)c1=O
35 | 176 to 178 | C=CCOc1cc(CC(C#N)=CNc2ccccc2)cc(OCC=C)c1NC(C)=O
36 | 222 to 224 | CCN(CC)C1CCCCN(CC(=O)N2c3ccccc3C(=O)Nc3cccnc32)C1 (stereo unspecified)
37 | 291 to 292 | CN(C(=O)N(C)c1ccc(C(=O)O)cc1)c1ccc(C(=O)O)cc1
38 | 244 to 247 | CCCCCCNC1=NS(=O)(=O)c2ccc(Cl)cc2N1
39 | 148 to 150 | CON=C(C)CC(C)(C)Cn1cnc2c(N)nc3ccccc3c21
40 | 97 to 99 | COC(=O)Cc1ccccc1CSc1nc2cc(C(F)(F)F)ccc2s1
41 | 217 to 219 | CS(=O)(=O)N1CCC(Nc2nc(Nc3ccc(F)c(C(=O)N4CCOCC4)c3)nc(OCC(F)(F)F)n2)CC1
42 | 84 to 86 | [N-]=[N+]=NCCCc1cn(S(=O)(=O)c2c(Cl)nc3sccn23)c2ccc(F)cc12
43 | 196 to 198 | CC(Oc1cc2sc(NC(=O)NCCN3CCOCC3)nc2cc1Cl)c1c(Cl)ccc(F)c1Cl (stereo unspecified)
44 | 148 to 155 | O=C(O)COc1cccc(Cn2cc(C3c4ccccc4C=Cc4ccccc43)c(=S)[nH]c2=O)c1
45 | 218 to 220 | CC(=O)Nc1ncc(CCc2ccc(N)cc2)s1
46 | 160 to 162 | O=C(O)CCCNc1ccnn1-c1c(Cl)cc(C(F)(F)F)cc1Cl
47 | 126 to 127 | O=C1c2ccccc2C(=O)N1CCCS(=O)(=O)c1ccccc1
48 | 169 to 170 | Cc1nc(N2CCC(Cc3ccc(F)cc3)C2=O)sc1C(=O)NCc1cccnc1 (stereo unspecified)

Row | melting point [°C] | SMILES
49 | > 250 | NC(=O)C1C2C=CC(C2)C1Nc1c(Cl)cnc2[nH]c(-c3ccc4c(c3)CCC3(CCNCC3)O4)nc12 (stereo unspecified)
50 | 153 to 155 | COC(=O)C(CO)NC(=O)c1cc2cc(Cl)ccc2[nH]1 (stereo unspecified)
51 | 109 to 111 | Cc1ccc(C)n1CCNC(=O)CN1CCCC1=O
52 | 103 to 105 | O=C(CNC(=O)c1nc2ccc(Oc3cccc(C(F)(F)F)c3)cc2cc1OCc1ccccc1)OCc1ccccc1
53 | 201 to 202 | O=c1c(CCCc2ccccn2)cc2cccnc2n1-c1cccc([N+](=O)[O-])c1
54 | 219 | CN1CCN(c2ccc(-c3cnc4c(c3)N(Cc3c(F)ccc(F)c3Cl)CCN4)cn2)CC1
55 | 112 | CO[C@H](C(=O)O)c1cccc([N+](=O)[O-])c1
56 | 136 to 137 | COc1ccc(CSc2nnc(-c3ccc4c(c3)CCO4)o2)cc1Cl
57 | 208 to 210 | COc1cc(-c2ncn(CCO)c2-c2ccc(C(F)(F)F)cc2)cc(OC)c1OC
58 | 137 to 138 | COc1cccc2c1NCn1cc(CO)cc1-2
59 | 230 to 232 | CC(C)NC(=O)c1ccn2nc(-c3ccccc3)c(-c3ccc(=O)n(C(C)C)n3)c2c1
60 | 226 to 228 | Cc1nc(N)nc(N)c1-c1cc(Cl)ccc1Cl
61 | 79.5 to 80 | C[C@H](CSC(=O)C1CCCCC1)C(=O)N1CSC[C@H]1C(=O)O
62 | 121 to 122 | Cc1cc(COc2nn(Cc3ccccc3)cc2C=O)ccc1OCc1nc(-c2ccco2)oc1C
63 | 82 to 84 | N#Cc1cc([N+](=O)[O-])ccc1Sc1ccccc1
64 | 36 to 58 | CCc1cc2c(SCC(=O)OC)ncnc2s1
65 | 145 to 147 | O=C(O)CCCC1=C(n2nc(-c3c(-c4ccccc4)nn4ccccc34)ccc2=O)CCCC1
66 | 181 to 183 | C[C@@H](O)c1nccc(N2CCN(c3nc4ccncc4o3)CC2)n1
67 | 33 to 33.5 | CC(=O)/C=C(\C)c1ccc(C2CCCC2)cc1
68 | 168 to 169 | COCOc1cc(F)ccc1-c1cc(-c2cccc(NC(=O)CN(C)C)c2)c(C#N)c(NC(=O)c2ccco2)n1
69 | 120 to 121 | Clc1ccc2ncc(Cl)nc2c1
70 | 99 to 101 | COCc1cnc2c(NC(=O)c3c(Cl)cccc3Cl)cc(C)cc2c1-n1ccnc1
71 | 103 to 118 | OCC1OC(n2cnc3c(NCCC(c4ccccc4)c4ccccc4)ncnc32)C(O)C1O (stereo unspecified)
72 | 145 to 146 | CCn1cc(C=O)c(-c2ccc([N+](=O)[O-])o2)n1

Row | melting point [°C] | SMILES
73 | 71 to 72 | O=C(O)CCCCCCCCCCCCCCCCCCCCCI
74 | 112 to 113 | COc1ccc(-c2nc(COCCc3cccc(NS(=O)(=O)C(F)(F)F)c3)cs2)cc1
75 | 115 to 120 | O=S(=O)(CCNc1ccc(Cl)c(C(F)(F)F)c1)NCCCOc1cccc(CN2CCCCC2)c1
76 | 77 to 79 | C#CCOC(=O)C(C#N)=C(SC)SC
77 | 149 to 150 | COc1cc(-c2csc(C)n2)cc2oc(=O)c(C)c(C)c12
78 | 164 to 166 | COC(=O)c1cc(-n2c(-c3ccccc3)cc3c2CCc2ccccc2-3)ccc1O
79 | 138 to 139 | CCOP(=O)(CCc1ccnc(-c2nc(=O)c3ccc(Cl)cc3s2)c1)OCC
80 | 193 | O=c1[nH]c(-c2ccccc2Br)nc2c1CCCC2
81 | 191 to 193 | Cc1cc2c(cc1F)c(C#N)c(-c1ccc(S(=O)(=O)N[C@H](C)C(F)(F)F)cn1)n2C1CCCC1
82 | 75 to 85 | CN(CCCNc1ncc(Cc2ccccc2)c(=O)[nH]1)c1ccccn1
83 | 46 | COC(=N)c1cc(Oc2ccc(C(F)(F)F)cc2Cl)ccc1[N+](=O)[O-]
84 | 220 to 230 | COc1cc(N)ccc1C=NNC(=N)NN=Cc1ccc(N)cc1OC
85 | 121 to 122 | CCC(CC)n1nc(-c2ccc(O)cc2O)c2cccc(C(F)(F)F)c21
86 | 97 to 105 | CN(CCc1ccc(O)cc1)[C@H]1CC[C@H](c2ccccc2)CC1
87 | 190 to 192 | c1ccc2c(c1)CCN(Cc1c[nH]c3ncccc13)C2
88 | 140 | Cn1cncc1C(O)c1ccc2nc(Cl)nc(-c3cccc(Cl)c3)c2c1 (stereo unspecified)
89 | 108 to 110 | CC(C)(S)CN1CCN(c2ccccn2)CC1
90 | 58 | C=CCCC(C#N)(C#N)Cc1ccc(OCC(F)(F)F)cc1
91 | 167 to 168 | O=c1cc(-c2ccc(OCc3ccccc3)c(OCc3ccccc3)c2)oc2cc(OCCBr)ccc12
92 | 203 to 204 | CCC(=O)Nc1c(C#N)cnn1-c1c(Cl)cc(Cl)c(Cl)c1Cl
93 | 104 to 105 | O=C(O)[C@H](Cc1ccc(C(F)(F)F)cc1)[C@@H](O)c1ccoc1 (racemic)
94 | 212 to 215 | CC(C)C1Sc2ccccc2NC(=O)C1NC(=O)C(F)(F)F (stereo unspecified)

Row | SMILES | melting point [°C]
95 | O=C1c2c(Br)cccc2-n2cnc(-c3noc(CCl)n3)c2[C@@H]2CCCN12 | 242 to 244
96 | C=C(C)n1c(=O)n(CCN2CCC(N(C)C(=O)c3ccccc3)CC2)c2ccccc21 | 120 to 122
